These results are taken from ChEMBL document CHEMBL1629610, “A 6-aminoquinolone compound, WC5, with potent and selective anti-human cytomegalovirus activity” (Antimicrob Agents Chemother, 2009).

A short description of data set [1]: Cytotoxicity against human foreskin fibroblast after 5 days by MTT assay. The note with it: human foreskin fibroblasts (HFF). The class given is cell-based. (In general: Tetrazolium assays rely on reduction of a dye to a coloured formazan, in cell work by metabolically active cells.)
A short description of data set [2]: Selectivity index, ratio of CC50 for Human foreskin fibroblast to EC50 for Human cytomegalovirus AD169.
In data set [3] the test system is Human betaherpesvirus 5. Nature of the data set: Antiviral activity against Human cytomegalovirus AD169 infected in human foreskin fibroblast assessed as inhibition of viral replication after 10 days by plaque reduction assay. The note with it: Human betaherpesvirus 5, AD169, 240 h. The class given is functional, organism-based. Background: Plaque reduction counts the foci of infection that form in a cell layer.

Data set [4] in a line: Cytotoxicity against human HSB2 cells by MTT assay. The class given is cell-based, CCRF-HSB-2.
A short description of data set [5]: Antiviral activity against Human herpesvirus 6B Z29 infected in human MOLT4 cells assessed as inhibition of virus DNA replication after 12 days by quantitative real time PCR. The format is functional, cell-based, Human herpesvirus 6 strain Z29. The note with it: Human betaherpesvirus 6B, MOLT-4, 288 h.
A short description of data set [6]: Antiviral activity against Human herpesvirus 6A GS infected in human HSB-2 cells assessed as inhibition of virus DNA replication after 12 days by quantitative real time PCR. The format is functional, cell-based, Human herpesvirus 6 (strain GS). Conditions: Human betaherpesvirus 6A, HSB2, 288 h. Background: Real-time PCR tracks product formation cycle by cycle.

A short description of data set [7]: Selectivity index, ratio of CC50 for human HSB-2 cells to EC50 for Human herpesvirus 6A GS. The class given is toxicity, cell-based. The note with it: read-out: Ratio CC50/EC50.
The test system of data set [8] is Human betaherpesvirus 5. Put plainly: Antiviral activity against Human cytomegalovirus infected in human […] cells transfected with pcDNA3.1-human GADPH-GFP assessed as induction of GFP-tagged viral immediate early gene expression at 50 uM after 48 hrs by transactivation assay. The format is functional, organism-based. Conditions: AD169.
The subject of data set [9] is Human betaherpesvirus 5. Nature of the data set: Antiviral activity against GDG-, GCV-,CDV-resistant Human cytomegalovirus P53 harboring DNA polymerase A987G mutant gene infected in human foreskin fibroblast by plaque reduction assay. The format is functional, organism-based. The note with it: Human betaherpesvirus 5, P53.
For the next data set, the system named is MOLT-4. Put plainly: Antiviral activity against Human herpesvirus 6B Z29 infected in human MOLT4 cells assessed as inhibition of virus-induced cytopathic effect by microscopic estimation. The format is functional, cell-based. Conditions: Human herpesvirus 6 strain Z29.
In data set [10] the test system is Human betaherpesvirus 5. Put plainly: Antiviral activity against GCV-resistant Human cytomegalovirus 759rD100 harboring 4-aa deletion (638-641) in UL97 kinase and DNA polymerase A987G mutant infected in human foreskin fibroblast by plaque reduction assay. The class given is functional, organism-based. The note with it: Human betaherpesvirus 5, 759rD100.
The test system of data set [11] is Human betaherpesvirus 5. Put plainly: Antiviral activity against PFA-, acyclovir-resistant Human cytomegalovirus D100 harboring mutation in DNA polymerase infected in human foreskin fibroblast by plaque reduction assay. The format is functional, organism-based. Conditions: Human betaherpesvirus 5, D100.
The nature of data set [12]: Antiviral activity against Murine cytomegalovirus Smith infected in mouse NIH-3T3 cells assessed as inhibition of virus DNA replication after 12 days by plaque reduction assay. The format is functional, cell-based, Murine cytomegalovirus (strain Smith). Conditions: Murid betaherpesvirus 1, NIH3T3, 288 h.
The nature of data set [13]: Cytotoxicity against mouse NIH/3T3 cells by MTT assay. The format is cell-based, NIH3T3.
Data set [14] relates to Human betaherpesvirus 5. Nature of the data set: Antiviral activity against Human cytomegalovirus AD169 infected in human […] cells assessed as induction of GFP-tagged viral immediate early gene expression at 50 uM after 48 hrs by flow cytometry. The class given is functional, organism-based.
For data set [15], the system named is Human betaherpesvirus 5. Nature of the data set: Antiviral activity against Human cytomegalovirus infected in human […] cells transfected with pcDNA3.1-HIV1 LTR-GFP assessed as induction of GFP-tagged viral immediate early gene expression at 50 uM after 48 hrs by transactivation assay. The format is functional, organism-based. The note with it: AD169.
Data set [16] deals with Human gammaherpesvirus 8. Nature of the data set: Antiviral activity against Human herpesvirus 8 infected in human BC-3 cells assessed as inhibition of virus DNA replication after 12 days by quantitative real time PCR. The format is functional, organism-based. Conditions: Human gammaherpesvirus 8, BC-3, 288 h.
The nature of data set [17]: Selectivity index, ratio of CC50 for mouse NIH 3T3 cells to EC50 for Murine cytomegalovirus. The format is toxicity, cell-based, NIH3T3. Conditions: read-out: Ratio CC50/EC50.
For data set [18], the system named is Human betaherpesvirus 5. Nature of the data set: Antiviral activity against Human cytomegalovirus infected in human […] cells transfected with pcDNA3.1-human EF1alpha-GFP assessed as induction of GFP-tagged viral immediate early gene expression at 50 uM after 48 hrs by transactivation assay. The class given is functional, organism-based. Conditions: AD169.

Data set [19] concerns Human betaherpesvirus 5. Nature of the data set: Antiviral activity against Human cytomegalovirus AD169 infected in human foreskin fibroblast by plaque reduction assay. The class given is functional, organism-based. The note with it: Human betaherpesvirus 5, AD169.
In the next data set the test system is HSB-2. Put plainly: Antiviral activity against Human herpesvirus 6A GS infected in human HSB-2 cells assessed as inhibition of virus-induced cytopathic effect by microscopic estimation. The format is functional, cell-based. Conditions: Human herpesvirus 6 (strain GS).
Data set [20] relates to Human betaherpesvirus 5. Nature of the data set: Antiviral activity against GDG-, GCV-resistant Human cytomegalovirus K17 harboring 4-aa deletion (638-641) in UL97 kinase infected in human foreskin fibroblast by plaque reduction assay. The class given is functional, organism-based. The note with it: Human betaherpesvirus 5, K17.
A short description of data set [21]: Cytotoxicity against human BC-3 cells by MTT assay. The class given is cell-based.
The subject of data set [22] is Human gammaherpesvirus 8. Put plainly: Antiviral activity against Human herpesvirus 8 infected in human BC-3 cells assessed as inhibition of virus-induced cytopathic effect by microscopic estimation. The class given is functional, organism-based.
Data set [23] is described as follows: Cytotoxicity against human MOLT4 cells by MTT assay. The class given is cell-based, MOLT-4.
Data set [24] is described as follows: Selectivity index, ratio of CC50 for human BC-3 cells to EC50 for Human herpesvirus 8. The class given is toxicity, cell-based. The note with it: read-out: Ratio CC50/EC50.
A short description of data set [25]: Ratio of EC50 for Human cytomegalovirus AD169 to EC50 for Murine cytomegalovirus. The format is functional.
Data set [26] can be described thus: Selectivity index, ratio of CC50 for human MOLT4 cells to EC50 for Human herpesvirus 6B Z29. The format is toxicity, cell-based, MOLT-4. Conditions: read-out: Ratio CC50/EC50.
In data set [27] the test system is Human betaherpesvirus 5. Put plainly: Antiviral activity against Human cytomegalovirus infected in human […] cells transfected with pcDNA3.1-HIV1 LTR-GFP assessed as induction of GFP-tagged viral immediate early gene expression at 0.5 uM after 48 hrs by transactivation assay. The format is functional, organism-based. The note with it: AD169.
Data set [28] relates to Human betaherpesvirus 5. Nature of the data set: Antiviral activity against Human cytomegalovirus AD169 infected in human […] cells assessed as induction of GFP-tagged viral immediate early gene expression at 0.5 uM after 48 hrs by flow cytometry. The class given is functional, organism-based.
Data set [29] deals with Human betaherpesvirus 5. Put plainly: Antiviral activity against Human cytomegalovirus infected in human […] cells transfected with pcDNA3.1-human EF1alpha-GFP assessed as induction of GFP-tagged viral immediate early gene expression at 0.5 uM after 48 hrs by transactivation assay. The class given is functional, organism-based. Conditions: AD169.
Data set [30] deals with Human betaherpesvirus 5. Nature of the data set: Antiviral activity against Human cytomegalovirus infected in human […] cells transfected with pcDNA3.1-human GADPH-GFP assessed as induction of GFP-tagged viral immediate early gene expression at 0.5 uM after 48 hrs by transactivation assay. The class given is functional, organism-based. The note with it: AD169.

pEC50: −log10 of the molar value. The source made the active and inactive calls. No cut-off for these calls is given here.

Consider `Cn1cc(C(=O)O)c(=O)c2cc(N)c(N3CCN(c4ccccn4)CC3)cc21`, for which, in data set [1], the CC50 (in general, the concentration at which the toxic effect on the cells reaches its halfway point) at 120 h amounted to 54 µM. In addition, in data set [2], the “Ratio CC50/EC50” value is recorded as 77.
Regarding `Nc1nc2c(ncn2COC(CO)CO)c(=O)[nH]1` [GANCICLOVIR], in the data set on Human betaherpesvirus 5 [3], the pEC50 (usually the EC50 on a negative log10 scale, so that one unit is a factor of ten) was 5.72. In [1], the CC50 at 120 h was 550 µM.
Regarding `Nc1cc2c(=O)c(C(=O)O)cn(C3CC3)c2cc1N1CCN(c2ccccn2)CC1`, the CC50 was 32 µM in data set [4], 275 µM in data set [13], 47 µM in data set [21] and 24 µM in data set [23]. In addition, the pEC50 was 5.48 in data set [5]; 5.29 in data set [6]; 6.00 with Human betaherpesvirus 5 [9]; 6.05 in the data set on Human betaherpesvirus 5 [10]; 5.96 in the data set with Human betaherpesvirus 5 [11]; 4.97 in data set [12]. Besides, the pEC50 with Human gammaherpesvirus 8 [16] is 4.85; in the data set with Human betaherpesvirus 5 [19], 6.05; in the data set on Human betaherpesvirus 5 [20] it was 5.82. The selectivity ratio in data set [7] was 6; in data set [17], 25; in [24], 3; in data set [26] it was 7. Further, the result with Human betaherpesvirus 5 [8], in the data set with Human betaherpesvirus 5 [14], in the data set with Human betaherpesvirus 5 [15] and in the data set with Human betaherpesvirus 5 [18] was inactive. Besides, the result with MOLT-4, in the data set with HSB-2 and in the data set on Human gammaherpesvirus 8 [22] was Active. The midpoint of cytotoxicity in data set [1], the CC50 at 120 h, lay at 431 µM. The “fold change (FC)” value in data set [25] came to 10.
As to `Nc1cc2c(=O)c(C(=O)O)cn(C3CC3)c2cc1N1CCN(c2nc3ccccc3s2)CC1`, the outcome in the data set on Human betaherpesvirus 5 [27], with Human betaherpesvirus 5 [28], in the data set with Human betaherpesvirus 5 [29] and in the data set on Human betaherpesvirus 5 [30] was Active. In data set [1], this molecule displayed a CC50 at 120 h of 4.5 µM.
`CC(C)(C)n1cc(C(=O)O)c(=O)c2cc(N)c(N3CCN(c4ccccn4)CC3)cc21` gave a CC50 at 120 h in data set [1] of at least 475 µM. In data set [2], the “Ratio CC50/EC50” value was “>=13”.
